Literature values in patent US20250235554A1, “METHODS FOR IMPROVING ADENO-[…] (AAV) […]” (Novartis AG, priority 2021, published 2025).

Test system: glymphatic flow
Details: mice and rats

## Cc1cccc([C@H](C)c2cnc[nH]2)c1C [Dexmedetomidine]
  effect on brain and spinal cord exposure of intrathecally administered drugs: increases brain and spinal cord drug exposure of intrathecally administered drugs
